# Laboratory results taken from publication PMC12040169 (PLOS Biology, 2025).
# Experiment: in vitro
# Settings: human, hela cells, % viability
row,Compound,"viability at 28.5 h, 10 µM [%]"
1,CSc1ccccc1C(=O)Nc1sc2c(c1C#N)CCN(C(C)=O)C2 [CBK304183],55.3
2,CC(C(=O)NC1CCCN(CC(F)(F)F)C1)n1cnc2ccccc21 (stereo not drawn) [CBK304185],96.6
3,O=C1NC2(CCOCC2)C(=O)N1Cc1ncc(-c2cccs2)o1 [CBK304187],92
4,COCCn1c(SCC(=O)N2CCCc3ccccc32)nc(O)cc1=O [CBK304191],59.5
5,Cc1ccsc1C(=O)Nc1ncn(CC(=O)N2CCCCCC2)n1 [CBK304192],92.5
6,CCn1nc(C)c(CNC(=O)N(Cc2ccccn2)CC(C)C)c1C [CBK304193],92.1
7,Cc1nccn1C1CCCN(C(C)C(=O)NC2(C#N)CCCCC2)C1 (stereo not drawn) [CBK304194],87.3
8,CCn1cc(CN(CCO)C(=O)c2cccc(C#N)c2C)cn1 [CBK304196],109
9,CCc1cc(=O)[nH]c(-c2ccc(N3CCCC3C(=O)N(C)C)nc2)n1 (stereo not drawn) [CBK304197],89.2
10,Cc1nc(-c2cccnc2)[nH]c(=O)c1CCC(=O)N1CC2CCC1C2 (stereo not drawn) [CBK304198],82.3
11,CCOC(=O)c1cnc2ccc(OC)cc2c1NCCN1CCOCC1 [CBK304199],87.7
12,COc1c(C)[nH]cc(CN(C)CCC(=O)Nc2cccc(F)c2)c1=O [CBK304201],90.5
13,CC(C)CC(CO)Nc1ncnc2ccc(S(C)(=O)=O)cc12 (stereo not drawn) [CBK304203],107
14,CCOCC1CCN(C(=O)c2ncsc2Nc2ccccc2)C1 (stereo not drawn) [CBK304204],117
15,Cc1cc(NC(=O)N(Cc2cnn(C)c2)CC(C)C)ccc1F [CBK304206],105
16,CC(Cn1cncn1)NC(=O)c1cccc(S(=O)(=O)NC2CCCC2)c1 (stereo not drawn) [CBK304209],89
17,CCOC(=O)C1CCCN(C(=O)Cn2cnc(-c3cccs3)cc2=O)C1 (stereo not drawn) [CBK304210],89.3
18,Cc1c(CN(C)CC(=O)Nc2ccc(Br)cc2Cl)cnn1C [CBK304214],86
19,CCc1ccc(C(O)CNC2CCN(c3nccs3)CC2)cc1 (stereo not drawn) [CBK304215],94.3
20,O=C(Nc1cc(N2CCCS2(=O)=O)ccc1F)c1n[nH]c2ccccc12 [CBK304216],80.5
21,Cc1ccccc1Nc1nc(N)nc(CN2CCN(C)CC2)n1 [CBK304217],89.9
22,CC(C)Cn1cnc(S(=O)(=O)N2CCN(CC(=O)NC3CC3)CC2)c1 [CBK304223],95.8
23,CCn1cc(C2CN(S(=O)(=O)c3cc(C)c(OC)cc3C)CCO2)cn1 (stereo not drawn) [CBK304225],84.9
24,CCn1cc(C2CN(S(=O)(=O)c3cccc(C)c3Cl)CCO2)cn1 (stereo not drawn) [CBK304226],91.3
25,CCn1cc(C2CN(S(=O)(=O)c3cccc(C(C)C)c3)CCO2)cn1 (stereo not drawn) [CBK304227],105
26,COCC(O)CN(C)C(=O)c1ccc(Oc2cccc(Br)c2)nc1 (stereo not drawn) [CBK304229],94
27,O=C(c1cnn(-c2ccc(Cl)cc2Cl)c1)N1CCOCC1c1ncon1 (stereo not drawn) [CBK304231],84.5

row,Compound,"viability at 28.5 h, 10 µM [%]"
1,CCn1cc(C2CN(S(=O)(=O)c3ccccc3OC(F)F)CCO2)cn1 (stereo not drawn) [CBK304234],106
2,COC(=O)C1CCN(C(=O)c2ccc(Oc3cccc(Br)c3)nc2)CC1 [CBK304235],103
3,O=C(c1cc(S(=O)(=O)N2CCOCC2)ccc1Cl)N1CCCC(CO)C1 (stereo not drawn) [CBK304236],104
4,CCC(c1ccc2c(c1)CCO2)N1CCN(Cc2nc(C)no2)CC1 (stereo not drawn) [CBK304237],90.3
5,CC1CNCCN1C(=O)c1cnn(-c2cccc(Cl)c2)c1 (stereo not drawn) [CBK304238],94.1
6,CC(=O)Nc1cccc(NC(=O)CN(CCO)C2CCCCC2)c1 [CBK304239],85.7
7,CCN(CC)CCNC(=O)c1ccc(C(=O)O)c(C)n1 [CBK304248],85.9
8,Cc1nn(C)c(C)c1CNC(=O)N1CCN(CC(F)F)CC1 [CBK304249],102
9,CN(CC1CCCOC1)C(=O)c1ncsc1Nc1ccccc1 (stereo not drawn) [CBK304250],94.4
10,Cc1ccccc1Nc1nc(CN2CCC3(CCCOC3)C2)cs1 (stereo not drawn) [CBK304255],95
11,O=C(NCC1(c2cccc(Br)c2)CCOCC1)C1CC(O)CN1 (stereo not drawn) [CBK304257],95.9
12,CCc1onc(C)c1C(=O)N1CCN(C2CCNC2)CC1 (stereo not drawn) [CBK304258],96
13,Cc1cnn(C)c1CN1CCNC(=O)C1c1ccccc1C(F)(F)F (stereo not drawn) [CBK304260],86.2
14,N#Cc1ccc(CN2CCCCC2c2[nH]ncc2C(N)=O)c(Cl)c1 (stereo not drawn) [CBK304261],91.4
15,CC1=CCCN(C(=O)C23CCOCC2CN(c2ncc(F)cn2)C3)C1 (stereo not drawn) [CBK304263],87.3
16,O=C(N1CCC=C(F)C1)C12CCOCC1CN(c1ncccn1)C2 (stereo not drawn) [CBK304264],91.3
17,CC(C)CCc1csc(C2CN3CCCC3CO2)n1 (stereo not drawn) [CBK304266],89.9
18,Cc1nnc2n1CCN(CC1CCCCO1)C2 (stereo not drawn) [CBK304267],105
19,CC(C)Oc1cc(Br)cc(C(=O)N2CCC(C(=O)O)C2)c1 (stereo not drawn) [CBK304268C],92.6
20,Cc1ccc2c(CC(=O)N3CCNCC3c3cnn(C)c3)coc2c1C (stereo not drawn) [CBK304271C],87
21,CCCCN=C(NCCCn1cccn1)N1CCCN(C(C)=O)CC1 [CBK304273I],107
22,Cn1cc(C2CNCCN2C(=O)CCCc2csc3ccccc23)cn1 (stereo not drawn) [CBK304274C],89.9
23,CC(C)NC(=O)Cn1nnc(-c2cccc(C(F)(F)F)c2)n1 [CBK304275],95.2
24,NC(=O)C1CCN(Cc2nc(-c3cccc(C(F)(F)F)c3)no2)CC1 [CBK304276],97.4
25,Cn1ccc(C(=O)NC2CCN(c3ncccn3)CC2)cc1=O [CBK304280],85.2
26,CC(CN(C)C(=O)c1cocn1)Oc1ccc(Cl)c(Cl)c1 (stereo not drawn) [CBK304285],97.6
27,C#CCN(C1CCc2ccccc21)S(=O)(=O)c1cc(C(N)=O)n(C)c1 (stereo not drawn) [CBK304287],95.1

row,Compound,"viability at 28.5 h, 10 µM [%]"
1,COCCN(C(=O)c1cc2cc(C)ccc2s1)C1CCS(=O)(=O)C1 (stereo not drawn) [CBK304289],87.3
2,CC1CCc2c(C(=O)N3CCC4(C3)NC(=O)NC4=O)csc2C1 (stereo not drawn) [CBK304290],76.8
3,NS(=O)(=O)c1ccc2c(c1)N(Cc1nc(-c3ccco3)no1)CC2 [CBK304291],71.9
4,Cn1nc2c(cc1=O)CN(C(=O)c1cnc(C(C)(C)C)nc1)CC2 [CBK304293],96.5
5,O=C(NC1CCS(=O)(=O)C1)c1c[nH]c2ccccc2c1=O (stereo not drawn) [CBK304295],88.7
6,Cc1cc(NC(=O)C2CCN(C(=O)CNc3ccccc3)CC2)no1 [CBK304297C],85.9
7,NC1CCN(C(=O)Cn2c3ccccc3c(=O)c3ccccc32)C1 (stereo not drawn) [CBK304300C],94.3
8,CNCC1CCCN(Cc2cn(-c3ccc(Br)cc3)nc2C)C1 (stereo not drawn) [CBK304301C],99.7
9,Cc1nn(C)c2ncc(S(=O)(=O)NCC(N)c3ccc(F)cc3F)cc12 (stereo not drawn) [CBK304303C],99.1
10,CCOCCn1c(N2CCCC(C)C2)nc2c1c(=O)[nH]c(=O)n2C (stereo not drawn) [CBK304304],85.1
11,COc1cc(CNC2CCCc3c2cnn3C)cc(OC)c1 (stereo not drawn) [CBK304306C],82.4
12,Cc1c(C(=O)N(C)Cc2cc3ccccc3o2)nnn1C1CCNCC1 [CBK304307C],96.4
13,CCCN(C(=O)CCn1c(=O)oc2cc(Cl)ccc21)C1CCNC1 (stereo not drawn) [CBK304311C],90.5
14,Cc1c(C(=O)N(C)Cc2nc(C(F)(F)F)cs2)nnn1C1CCNCC1 [CBK304315C],106
15,CC1(C)NC(=O)N(CC(O)Cn2c3ccccc3c3ccccc32)C1=O (stereo not drawn) [CBK304318],86.8
16,Cn1cc(C2CNCCN2C(=O)c2csc3ccccc23)cn1 (stereo not drawn) [CBK304324C],108
17,Cc1[nH]c(=O)[nH]c(=O)c1CC(=O)NCC1CCN(c2ccccc2F)C1 (stereo not drawn) [CBK304325],99.7
18,Cn1nc2c(cc1=O)CN(C(=O)c1ccoc1)CC2 [CBK304330],119
19,Cc1nc(CC(=O)NCc2cccnc2N2CCOCC2)cs1 [CBK304331],98.7
20,CC(=O)N1CCc2c(sc(NC(=O)c3ccc(N(C)C)cc3)c2C#N)C1 [CBK304333],94.7
21,Cc1cc(C)cc(CNC(=O)N(CCCO)Cc2ccncc2)c1 [CBK304335],93.7
22,CC(C)CNC(=O)C1CCN(C(=O)c2cccc(F)c2)CC1 [CBK304338],112
23,Cc1nc(CC(=O)Nc2ccc(N3CCOCC3)cc2)cs1 [CBK304339],95.8
24,Cc1c(CN(C)CC(=O)Nc2cccc(C(F)(F)F)c2)cnn1C [CBK304341],85
25,Cn1nc2c(cc1=O)CN(C(=O)c1ccc3cc[nH]c3c1)CC2 [CBK304343],93.8
26,Cn1c(C(=O)NC2CCOC(C)(C)C2)cc2ccccc21 (stereo not drawn) [CBK304344],91.7

# Same assay, conditions: human, hela cells, % viability, bulk resorufin, single well
row,Compound,"viability at 28.5 h, 10 µM [%]"
1,CCCCN1C(=O)C(O)(c2c(C)nn(CCO)c2N)c2ccccc21 (stereo not drawn) [CBK304286],116
